These results are taken from patent publication US20250327140A1, “A METHOD OF DETERMINING THE DOSE OF PSYCHEDELICS” (priority 2022, published 2025).

Experiment [1] has as its system ABCF1 promoter (eGFP reporter). Description: DC2.4 cells transfected with ABCF1-GFP reporter construct, drug screening by fluorescence. The experiment is classed as cell-based. Conditions: for induction of ABCF1-EGFP-IRES (FIG. 11): DC2.4 cells with ABCF1 GFP construct. An excerpt:
Cells for use in a high-throughput cell-based screening assay to screen for drugs and genes that stimulate ABCF1 expression were created. In particular, the cells comprise a construct comprising the ABCF1 promoter linked to the sequence encoding eGFP. In the assay, drugs/compositions may be screened for modulating expression of ABCF1 by measuring fluorescence. • 1. DC2.4 cell line was used for the ABCF1-GFP vector (FIG. 7) transfection. DC 2.4 cell line was used as these cells have low endogenous ABCF1 expression. • 2. After 3 days, based on the fluorescent signal, those transfected cells were single cell sorted using cell sorter, compared with DC2.4 cell line without transfection as a negative control. (Those cells with some fluorescent signals were transfected successfully as expected) • 3. Those single cells were collected in a 96 well plate and grown around 2 weeks using DMEM+10% FBS+1% PS, and 12 colonies were picked. • 4. Expended 12 colonies into 24 well plate to grow continuously around 2 weeks with DMEM+10% FBS+1% PS+[…] Hygromycin (selection antibiotics which inserted in the vector) to keep the majority of cells which containing the vector. • 5. 5 colonies were growing well and checked the colonies ABCF1 expression level (checked the GFP reporter in between negative control and positive control (50 uM and 100 μM) to see which colonies is the best to be drug screening cell). • See FIGS. 8 to 11.

Experiment [2] deals with ABCF1. Put plainly: real time RT-PCR specific for ABCF1 and IL-4 in RAW macrophages incubated with Escitalopram. Type of experiment: cell-based, murine. To be noted: 0.3 mM, 1 hour. The method, then: RAW macrophages were plated at 1×10^5 cells/well and cultured for 2 days. The cells were incubated with 0.3 mM Escitalopram for 1 hour, and then harvested for total RNA, which was extracted for real time RT-PCR specific for ABCF1 and IL-4. CT values were normalized with CT value for the housekeeping gene from the DMSO control.
(In general: Real-time PCR tracks product formation cycle by cycle.)

Experiment [3] deals with ABCF1. Put plainly: qPCR of ABCF1 transcription in macrophage cell line RAW264.7, dose response with psychedelics. The experiment is classed as cell-based, murine. To be noted: RAW264.7, 10 nM, 100 nM, 500 nM, 2 hours post treatment. The method, then: • 1. Macrophage cell line RAW264.7 (ATCC) were grown to 80% confluency in growth media (DMEM+10% FBS+glutamine). • 2. Dilutions of the drugs were made at desired final concentrations for a Dose response experiment. The concentrations' used for this experiment are: 10 nM, 100 nM, 500 nM for Psilocin, Psylocibin, 4-Acetoxy-N, N-dimthyltryptamine, O-Acetyl Psilocin Fumerate, and 4-acetoxyindole. • 3. Untreated cells were used as negative control and Escitalopram at 0.3 mM was used as a positive control to activate ABCF1 expression for all the experiments. Analysis by qPCR:
• 1. 2 hours post treatment with drugs, the reaction was stopped by removing the media with the drug. Cells were then collected and RNA was isolated from these. • 2. After checking the quality of the RNA, cDNA was generated and qPCR was run with ABCF1 primers as the target gene and GAPDH as the house keeping gene. • 3. Normalized against the expression level of GAPDH, the fold change expression level of ABCF1 was calculated and tabulated for all treatment conditions.

In the case of `CC(=O)Oc1cccc2[nH]ccc12` [AOI, 4-acetoxyindole], the “induction of ABCF1-EGFP-IRES (FIG. 11)” value in experiment [1] was “induction”. The “ABCF1 upregulation (FIG. 10)” value in experiment [1] (after 1 hour drug treatment) is given as “upregulates”.

As for `CN(C)CCC[C@@]1(c2ccc(F)cc2)OCc2cc(C#N)ccc21` [Escitalopram], the “induction of ABCF1-EGFP-IRES (FIG. 11)” value in experiment [1] is listed as “induction”. Moreover, the “difference in ABCF1 and IL-4 expression after drug treatment (macrophage polarization)” value in experiment [2] (consistent in 3 separate experiments) is recorded as “consistent with polarization towards an M2-like phenotype”. Further, in experiment [2] (real time RT-PCR), the “ABCF1 induction in a macrophage cell line” value is recorded as “Induces”.

For `CN(C)CCc1c[nH]c2cccc(O)c12` [psylocin, Psilocin], the “ABCF1 transcription (fold change vs GAPDH)” value in experiment [3] was “upregulate”.
